For data set [1], the system named is HSFA2 gene. As to the kind of experiment: Expression level of HSFA2 gene in Arabidopsis (qPCR). Format: in vivo, Arabidopsis thaliana. The following applies: for fold induction at 10 nmol/cm3: Arabidopsis thaliana, 0.5 h, read-out: relative transcription level (fold), HSFA2 gene. From the text:
(§1) Total RNA was extracted using RNeasy Plant Mini Kit (Quiagen), and cDNA was successively synthesized using RevaTra Ace Kit (TOYOBO CO., LTD.).
(§2) HSFA2 gene and DREB2A gene were quantified using SYBR Green qPCR Mix (TOYOBO CO., LTD.), LineGene Real-time PCR detection system (BioFlux).
(§3) The primers used for each gene expression analysis are as described below.
Arabidopsis (Arabidopsis thaliana, Columbia-0) was exposed to the compound shown in Table 2 in a gaseous state (concentration 10 nmol/cm^3) for 30 min (temperature 23° C.), and the expression level of HSFA2 gene was analyzed.
(§4) Arabidopsis was seeded in artificial soil material “Jiffy-7” (SAKATA SEED CORPORATION), cultured for 14 hr in light period/10 hr in dark period at 23° C. for 2-3 weeks and used.

The test system of the next data set is photochemical system II. The experiment in a line: Photosynthesis activity (Fv/Fm) of Arabidopsis. Format: in vivo, Arabidopsis thaliana. The settings on record: gaseous state 25 nmol/cm^3, 120 min, 25° C., light 100 μmol/m^2·s, dark adaptation 5 min. The method, then: The photosynthesis activity was measured using the maximum quantum yield (Fv/Fm) of photochemical system II as an index. Test plant object was subjected to dark adaptation (for 5 min), and Fv/Fm was measured using photosynthesis measuring apparatus Junior-PAM (Walz). The measurement was performed at least three times for different sites of the leaf and the averaged numerical value was taken as photosynthesis activity.
Arabidopsis (Arabidopsis thaliana, Columbia-0) was exposed to the compound shown in Table 4 in a gaseous, state (concentration 25 nmol/cm^3) for 120 min (temperature 25° C.) in the presence of light (100 μmol/m^2·s), subjected to a dark adaptation treatment for 5 min, and photosynthesis activity (Fv/Fm) was measured.
as §4

Data set [2] relates to Arabidopsis (Arabidopsis thaliana, Columbia-0). As to the kind of experiment: Survival rate of Arabidopsis after high temperature treatment. The following applies: gaseous state 10 nmol/cm^3 for 120 min, then 120 min at 40-45° C. in light; relative to non-exposure sample as 100(%). Format: in vivo. The method, then: Arabidopsis (Arabidopsis thaliana, Columbia-0) was exposed to the compound shown in Table 3 in a gaseous state (concentration 10 nmol/cm^3) for 120 min, left standing for 120 min in an environmental control chamber (manufactured by NIPPON MEDICAL & CHEMICAL INSTRUMENTS CO., LTD.) set to 40-45° C. and in the presence of light (100 μmol/m^2·s), and the survival rate after lapse of 3 days was measured.
as §4
In Table 3, the survival rate is a relative value with the survival rate of a non-exposure sample (sample left standing at 45° C. for 120 min without exposure to the compound) as 100(%).

Data set [3] concerns HSFA2 gene. The experiment in a line: Expression level of HSFA2 gene in tomato (qPCR). The format is in vivo, Solanum lycopersicum. The following applies: tomato (Microtom), gaseous state 10 nmol/cm^3, 30 min, 25° C.; non-exposure as 1. The method, then: as §1, §2, §3
Tomato (Solanum lycopersicum, Microtom) was exposed to (E)-2-hexenal in a gaseous state (concentration 10 nmol/cm^3) for 30 min (temperature 25° C.), and the expression level of HSFA2 gene was analyzed to find 20.2-fold (relative transcription level with non-exposure to (E)-2-hexenal as 1).
The tomato was seeded in artificial soil material “Jiffy-7” (SAKATA SEED CORPORATION), cultured for 14 hr in light period/10 hr in dark period at 23° C. for 2-3 weeks and used.

Data set [4] has as its system HSFA2 gene. As to the kind of experiment: Expression level of HSFA2 gene in rice (qPCR). Format: in vivo, Oryza sativa. The settings on record: rice (Nipponbare), gaseous state 10 nmol/cm^3, 30 min, 25° C.; non-exposure as 1. As for the experimental part:
as §1, §2, §3
(§5) Rice (Oryza sativa, Nipponbare) was exposed to (E)-2-hexenal in a gaseous state (concentration 10 nmol/cm^3) for 30 min (temperature 25° C.), and the expression level of HSFA2 gene and DREB2A gene was analyzed. As a result, the expression level of HSFA2 gene was 3.55-fold (relative transcription level with non-exposure to (E)-2-hexenal as 1), and the expression level of DREB2A was 3.93-fold (relative transcription level with non-exposure to (E)-2-hexenal as 1).
(§6) The rice was seeded in artificial soil material “Jiffy-7” (SAKATA SEED CORPORATION), cultured for 14 hr in light period/10 hr in dark period at 23° C. for 2-3 weeks and used.

In another data set the test system is DREB2A gene. As to the kind of experiment: Expression level of DREB2A gene in rice (qPCR). The format is in vivo, Oryza sativa. The following applies: rice (Nipponbare), gaseous state 10 nmol/cm^3, 30 min, 25° C.; non-exposure as 1. The method, then:
as §1, §2, §3, §5, §6

The subject of the next data set is HSP17.6-C. As to the kind of experiment: Expression level of HSP gene HSP17.6-C in Arabidopsis (microarray). Format: in vivo, Arabidopsis thaliana. The settings on record: gaseous state 10 nmol/cm^3, 30 min, 23° C., non-exposure as 1. The method, then: (§7) HSP gene was quantified by microarray analysis. The total RNA was extracted using RNeasy Plant Mini Kit (Quiagen), and double stranded cDNA was synthesized using Superscript Choice System (Life Technologies). cDNA was labeled with Cy3 by using NimbleGen One-color Labeling Kit (NimbleGen), and hybridized to DNA array (ATH6_60 mer_expr X4, NmibleGen) at 42° C. for 6 hr. DNA array was washed, Cy3 fluorescence intensity was measured by Axon GenePix 4000B scanner (NimbleGen) and quantified.
(§8) Arabidopsis (Arabidopsis thaliana, Columbia-0) was exposed to (E)-2-hexenal in a gaseous state (concentration 10 nmol/cm^3) for 30 min (temperature 23° C.), and the expression level of HSP genes (HSP17.6-C, HSP17.6-A) was analyzed.
as §4

In another data set the test system is HSP17.6-A. The experiment in a line: Expression level of HSP gene HSP17.6-A in Arabidopsis (microarray). Format: in vivo, Arabidopsis thaliana. The settings on record: gaseous state 10 nmol/cm^3, 30 min, 23° C., non-exposure as 1. As for the experimental part: as §7, §8, §4
Setting [5] is: Arabidopsis, gaseous state 10 nmol/cm^3, 30 min, 23° C., relative to acetonitrile as 1.

Where two headings read alike, the source gives them in different places.

In the case of `CCCCCC(C)=O` [2-heptanone, reference compound], the fold induction at 10 nmol/cm3 with HSFA2 gene [1] (setting [5]) amounted to 1.1.
Turning to `C=CC=O` [2-propenal, reference compound], the “photosynthesis activity (Fv/Fm)” value in the data set with photochemical system II worked out at 0.393.
Turning to `C/C=C/C=O` [(E)-2-butenal], the “relative transcription level (fold), HSFA2 gene” value in the data set on HSFA2 gene [1] (setting [5]) was determined as 469 fold. Further, the “survival rate (%) after 3 days” value in data set [2] is recorded as 140%. For the same compound, the “photosynthesis activity (Fv/Fm)” value in the data set with photochemical system II is on record as 0.726.
`CCCCCCC/C=C/C=O` [(E)-2-decenal]: in the data set with photochemical system II, the “photosynthesis activity (Fv/Fm)” value turned out to be 0.753.
For `CCCC/C=C/C=O` [(E)-2-heptenal], in the data set on HSFA2 gene [1] (setting [5]), the fold induction at 10 nmol/cm3 worked out at 642. The “photosynthesis activity (Fv/Fm)” value in the data set with photochemical system II is 0.748.
In the case of `CCC/C=C/C=O` [(E)-2-hexenal], the fold induction at 10 nmol/cm3 with HSFA2 gene [1] is 377. For the same compound, the “relative transcription level, HSFA2 gene” value in the data set on HSFA2 gene [3] is 20.2 fold; in the data set on HSFA2 gene [4], 3.55 fold. Besides, in the data set on DREB2A gene, the “relative transcription level, DREB2A gene” value is reported as 3.93 fold. In data set [2], the “survival rate (%) after 3 days” value worked out at 170%. Besides, in the data set on photochemical system II, the “photosynthesis activity (Fv/Fm)” value is listed as 0.739. For the same compound, the “Relative transcription level (fold) HSP17.6-C” value with HSP17.6-C was determined as 45.9 fold. Further, the “Relative transcription level (fold) HSP17.6-A” value in the data set with HSP17.6-A is listed as 36.3 fold.
With `CCC/C=C/CO` [(E)-2-hexenol, reference compound], the fold induction at 10 nmol/cm3 in the data set with HSFA2 gene [1] (setting [5]) amounted to 0.735.
For `CCCCCC/C=C/C=O` [(E)-2-nonenal], the fold induction at 10 nmol/cm3 with HSFA2 gene [1] (setting [5]) was determined as 488. Moreover, the “photosynthesis activity (Fv/Fm)” value in the data set with photochemical system II is 0.741.
In the case of `CCCCC/C=C/C=O` [(E)-2-octenal], the fold induction at 10 nmol/cm3 in the data set with HSFA2 gene [1] (setting [5]) worked out at 777. The “photosynthesis activity (Fv/Fm)” value in the data set on photochemical system II is listed as 0.732.
For the compound `CC/C=C/C=O` [(E)-2-pentenal], the fold induction at 10 nmol/cm3 in the data set with HSFA2 gene [1] (setting [5]) amounted to 470. The “photosynthesis activity (Fv/Fm)” value in the data set on photochemical system II is on record as 0.710.
Regarding `CCC/C=C/C(C)=O` [(E)-3-hepten-2-one], the fold induction at 10 nmol/cm3 in the data set with HSFA2 gene [1] (setting [5]) is 266. For the same compound, the “survival rate (%) after 3 days” value in data set [2] came out at 159%.
`CC/C=C\CCC=O` [(Z)-4-heptenal]: in the data set with HSFA2 gene [1] (setting [5]), the fold induction at 10 nmol/cm3 is 320. Besides, the “photosynthesis activity (Fv/Fm)” value in the data set on photochemical system II is recorded as 0.743.
Take `CC/C=C\CCCCC=O` [(Z)-6-nonenal]: in the data set with HSFA2 gene [1] (setting [5]), the fold induction at 10 nmol/cm3 is 270. Also, the “photosynthesis activity (Fv/Fm)” value with photochemical system II was found to be 0.745.
Take `CC#N` [acetonitrile, reference compound]: the fold induction at 10 nmol/cm3 with HSFA2 gene [1] is 1. The “photosynthesis activity (Fv/Fm)” value in the data set with photochemical system II is listed as 0.729.
For n-hexenal [reference compound], the “relative transcription level (fold), HSFA2 gene” value in the data set with HSFA2 gene [1] (setting [5]) was 7.9 fold.
